# According to paper PMC3495945, “Org 214007-0: A Novel Non-Steroidal Selective Glucocorticoid Receptor Modulator with Full Anti-Inflammatory Properties and Improved Therapeutic Index” (PLoS ONE, 2012):
# Read-outs that look alike come from different tables or passages of the source.
# What was measured:
# [1] = molecular target: T1, His-GR-LBD (F602S mutated) (Homo sapiens, UniProt P04150, F602S); assay: Co-factor-peptide (TIF2-3) recruitment assay; format: biochemical; conditions: for Emax: read-out: percentage maximal efficacy (%CV), recruitment of TIF2-3 peptide
# T1 construct: E. coli produced His-GR-LBD (F602S mutated) at 10 nM; made in house; host or cells: E. coli
# T1 sequence (P04150 524-758 F602S limits assumed): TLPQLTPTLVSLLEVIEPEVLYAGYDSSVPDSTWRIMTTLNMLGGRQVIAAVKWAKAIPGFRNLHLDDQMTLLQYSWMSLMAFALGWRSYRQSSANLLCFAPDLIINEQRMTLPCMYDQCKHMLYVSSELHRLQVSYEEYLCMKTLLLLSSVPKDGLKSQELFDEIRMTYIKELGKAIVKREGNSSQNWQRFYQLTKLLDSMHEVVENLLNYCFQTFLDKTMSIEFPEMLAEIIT
# Protocol: Hereafter, peptide, representing Transcriptional Intermediary Factor 2 – LXXLL motif 3 (TIF2-3) at 100 nM (final concentration), streptavidin-APC (8 nM, final concentration) and anti-His-Eu (1.25 nM final concentration) were added to a total volume of 50 μL/well and incubation at 4°C was continued for another 20 hours. Fluorescence was measured using Tecan Infinite M1000 and data were analysed by GraphPad Prism.
# [2] = tested on: anti-CD3-induced IL-2 release; assay: anti-CD3-induced IL-2 mouse model; format: in vivo; conditions: oral; for ED50: Mus musculus, 1 hour before anti-CD3 i.p., Balb/c mice, read-out: ED50, reduction of anti-CD3-induced IL-2 serum levels; for efficacy, inhibition of anti-CD3-induced IL-2: relative to 10 mg/kg A420983 (100%)
# Protocol: For both the LPS-induced TNFα as well as the anti-CD3 induced IL-2 model, female Balb/c mice of 8–12 week old were used. Mice were treated orally with 0.2 ml compound or vehicle (water/mannitol (5%) with 5% DMSO/5% chremophore for the LPS model or with 0.5% gelatine for the anti-CD3 model). One hour after oral treatment animals were challenged i.p. with 0.2 ml of either 20 μg/mouse LPS (Sigma, E. coli serotype 055:B5) or 5 µg/mouse hamster anti-CD3 monoclonal (BD Biosciences Pharmingen, art. nr. 553057, clone 145-2C11). Ninety minutes after LPS injection or 3 hours after anti-CD3 challenge, blood samples were collected and serum levels of TNFα or IL-2 were determined via specific ELISAs (BD Biosciences Pharmingen, San Diego, CA, USA). In the experiment that included treatment with RU486 to block GR, mice were dosed subcutaneously with 50 mg/kg RU486 30 minutes before the oral compound dosing. ED50 and % efficacy (maximal percentage inhibition of TNFα or IL-2 release) are determined using a 3 parameter sigmoidal curve calculation. Statistical analysis of the results was performed using an one-way ANOVA (log) test.
# THP-1 cells = assay: THP-1 induction of FKBP51, GILZ, DUSP1; format: cell-based, human; conditions: for EC50: Homo sapiens, THP-1, no stimulus; for Max. eff., DUSP1 induction / Max. eff., FKBP51 induction / Max. eff., GILZ induction: THP-1, prednisolone = 100%
# Protocol: THP-1 cells were incubated with glucocorticoid in the presence of either DMSO (control) or IFNγ/TNFα (220 ng/ml/375 ng/ml). After 6 hours total RNA was isolated and further processed for microarray hybridization as described for the HepG2 cells. The data from all microarray experiments have been deposited in the NCBI Gene Expression Omnibus (GEO) under accession number (identifier will be included in proof). […] Expression of FKBP51, MCP-1, IL-6 and IL-8 protein was measured by specific […]; #A[…] [MCP-1], #A[…] [IL-6] and #A[…] [IL-8]) according to the manufacturer manual. […] Expression of FKBP51, DUSP1 and GILZ was measured by Q-PCR according to the same procedure as described for the HepG2 cells. In this case the following primer-pairs were used: for GAPDH: [NT] and [NT]; for FKBP51: [NT] and [NT]; for DUSP1: [NT] and [NT]; for GILZ: [NT] and [NT]. For the evaluation of protein expression, cells were incubated overnight with a whole dose range of compounds. Supernatants were collected to determine cytokine levels and cell lysates were generated by repeated freeze-thaw cycles to measure expression of FKBP51 protein. Expression of FKBP51, MCP-1, IL-6 and IL-8 was measured by specific […]; #A[…] [MCP-1], #A[…] [IL-6] and #A[…] [IL-8]) according to the manufacturer manual. […] Samples were incubated for 60 min at 23 C. […] Plates were measured using an EnVision-Alpha Reader.
# [3] = read-out: EC50, DUSP1 induction
# [4] = read-out: EC50, FKBP51 induction
SMILES,"EC50 ([1]; 0.1 μM peptide, read-out: EC50 (%CV), recruitment of TIF2-3 peptide) [µM]",Emax [1] [%],ED50 [2] [mg/kg],"efficacy, inhibition of anti-CD3-induced IL-2 [2] [%]",EC50 (THP-1 cells; [3]) [µM],EC50 (THP-1 cells; [4]) [µM],"EC50 (THP-1 cells; read-out: EC50, GILZ induction) [µM]","Max. eff., DUSP1 induction (THP-1 cells)","Max. eff., FKBP51 induction (THP-1 cells)","Max. eff., GILZ induction (THP-1 cells)"
Cc1nnsc1C(=O)N[C@H]1CCN2c3ccc(C#N)cc3[C@@H](C)c3ccccc3[C@@H]2C1 [Org 214007-0],0.01,67,~0.3,75,0.0064,0.008,0.0137,41 (±6) %,42 (±8) %,13 (±5) %
"C[C@]12C=CC(=O)C=C1CC[C@@H]1[C@@H]2[C@@H](O)C[C@@]2(C)[C@H]1CC[C@]2(O)C(=O)CO [prednisolone, reference compound]",–,100,~10,75,0.0674,0.0658,0.0602,100%,100%,100%
